Source: ChEMBL document CHEMBL1275577, “Study of the in vitro activities of rifaximin and comparator agents against 536 anaerobic intestinal bacteria from the perspective of potential utility in pathology involving bowel flora” (Antimicrob Agents Chemother, 2009)
Values after ≈ are worked out from the molar mass of the structure shown.

Legend:
Type in all cases: functional
Tissierella praeacuta = experiment: Antimicrobial activity against Clostridium hastiforme by Wadsworth agar dilution method
Porphyromonas uenonis = experiment: Antimicrobial activity against Porphyromonas uenonis by Wadsworth agar dilution method
Actinomyces viscosus = experiment: Antimicrobial activity against Actinomyces viscosus by Wadsworth agar dilution method
Clostridium scindens = experiment: Antimicrobial activity against Clostridium scindens by Wadsworth agar dilution method
Bacteroides ovatus = experiment: Antimicrobial activity against Bacteroides ovatus by Wadsworth agar dilution method
Clostridium symbiosum = experiment: Antimicrobial activity against Clostridium symbiosum by Wadsworth agar dilution method
Eggerthella lenta = experiment: Antimicrobial activity against Eggerthella lenta by Wadsworth agar dilution method
Clostridium tertium = experiment: Antimicrobial activity against Clostridium tertium by Wadsworth agar dilution method
Bifidobacterium breve = experiment: Antimicrobial activity against Bifidobacterium breve by Wadsworth agar dilution method
Eubacterium limosum = experiment: Antimicrobial activity against Eubacterium limosum by Wadsworth agar dilution method
[1] = test system: Desulfovibrio desulfuricans; experiment: Antimicrobial activity against Desulfovibrio desulfuricans by Wadsworth agar dilution method
Clostridium fallax = experiment: Antimicrobial activity against Clostridium fallax by Wadsworth agar dilution method
Desulfovibrio piger = experiment: Antimicrobial activity against Desulfovibrio piger by Wadsworth agar dilution method
[2] = test system: Coprobacillus cateniformis; experiment: Antimicrobial activity against Coprobacillus cateniformis by Wadsworth agar dilution method
Clostridium sporogenes = experiment: Antimicrobial activity against Clostridium sporogenes by Wadsworth agar dilution method
[3] = test system: Parabacteroides distasonis; experiment: Antimicrobial activity against Parabacteroides distasonis by Wadsworth agar dilution method
Clostridium subterminale = experiment: Antimicrobial activity against Clostridium subterminale by Wadsworth agar dilution method
Bilophila wadsworthia = experiment: Antimicrobial activity against Bilophila wadsworthia by Wadsworth agar dilution method in presence of 1% pyruvic acid
[4] = test system: Lactobacillus catenaformis; experiment: Antimicrobial activity against Lactobacillus catenaformis by Wadsworth agar dilution method; details: Eggerthia catenaformis
[5] = test system: Peptoniphilus asaccharolyticus; experiment: Antimicrobial activity against Peptoniphilus asaccharolyticus by Wadsworth agar dilution method
Fusobacterium varium = experiment: Antimicrobial activity against Fusobacterium varium by Wadsworth agar dilution method
Clostridium butyricum = experiment: Antimicrobial activity against Clostridium butyricum by Wadsworth agar dilution method
Fusobacterium nucleatum = experiment: Antimicrobial activity against Fusobacterium nucleatum by Wadsworth agar dilution method
[6] = test system: Enterocloster clostridioformis; experiment: Antimicrobial activity against Clostridium clostridioforme by Wadsworth agar dilution method
Clostridium spiroforme = experiment: Antimicrobial activity against Clostridium spiroforme by Wadsworth agar dilution method; details: Thomasclavelia spiroformis
Bacteroides uniformis = experiment: Antimicrobial activity against Bacteroides uniformis by Wadsworth agar dilution method
Schaalia meyeri = experiment: Antimicrobial activity against Actinomyces meyeri by Wadsworth agar dilution method
Bifidobacterium dentium = experiment: Antimicrobial activity against Bifidobacterium dentium by Wadsworth agar dilution method
Bacteroides stercoris = experiment: Antimicrobial activity against Bacteroides stercoris by Wadsworth agar dilution method
[7] = test system: Clostridium lactatifermentans; experiment: Antimicrobial activity against Clostridium lactatifermentans by Wadsworth agar dilution method; details: Anaerotignum lactatifermentans
Ruminococcus gnavus = experiment: Antimicrobial activity against Ruminococcus gnavus by Wadsworth agar dilution method; details: Mediterraneibacter gnavus
[8] = test system: Clostridium acetobutylicum; experiment: Antimicrobial activity against Clostridium acetobutylicum by Wadsworth agar dilution method
[9] = test system: Lactobacillus acidophilus; experiment: Antimicrobial activity against Lactobacillus acidophilus by Wadsworth agar dilution method
Prevotella corporis = experiment: Antimicrobial activity against Prevotella corporis by Wadsworth agar dilution method
Clostridium sp. = experiment: Antimicrobial activity against Clostridium sp. by Wadsworth agar dilution method
Desulfovibrio vulgaris = experiment: Antimicrobial activity against Desulfovibrio vulgaris by Wadsworth agar dilution method; details: Nitratidesulfovibrio vulgaris
Fusobacterium sp. = experiment: Antimicrobial activity against Fusobacterium sp. by Wadsworth agar dilution method
Eubacterium saburreum = experiment: Antimicrobial activity against Eubacterium saburreum by Wadsworth agar dilution method; details: Lachnoanaerobaculum saburreum
Clostridium cadaveris = experiment: Antimicrobial activity against Clostridium cadaveris by Wadsworth agar dilution method
Eubacterium callanderi = experiment: Antimicrobial activity against Eubacterium callanderi by Wadsworth agar dilution method
Porphyromonas = experiment: Antimicrobial activity against Porphyromonas sp. by Wadsworth agar dilution method
Ruminococcus lactaris = experiment: Antimicrobial activity against Ruminococcus lactaris by Wadsworth agar dilution method
Clostridium beijerinckii = experiment: Antimicrobial activity against Clostridium beijerinckii by Wadsworth agar dilution method
[10] = test system: Bacteroides thetaiotaomicron; experiment: Antimicrobial activity against Bacteroides thetaiotaomicron by Wadsworth agar dilution method
Clostridium disporicum = experiment: Antimicrobial activity against Clostridium disporicum by Wadsworth agar dilution method
[11] = test system: Catenibacterium mitsuokai; experiment: Antimicrobial activity against Catenibacterium mitsuokai by Wadsworth agar dilution method
Bacteroides nordii = experiment: Antimicrobial activity against Bacteroides nordii by Wadsworth agar dilution method

CN[C@H](CC(C)C)C(=O)N[C@H]1C(=O)N[C@@H](CC(N)=O)C(=O)N[C@H]2C(=O)N[C@H]3C(=O)N[C@H](C(=O)N[C@H](C(=O)O)c4cc(O)cc(O)c4-c4cc3ccc4O)[C@H](O)c3ccc(c(Cl)c3)Oc3cc2cc(c3O[C@@H]2O[C@H](CO)[C@@H](O)[C@H](O)[C@H]2O[C@H]2C[C@](C)(N)[C@H](O)[C@H](C)O2)Oc2ccc(cc2Cl)[C@H]1O [VANCOMYCIN]
MIC50 (Tissierella praeacuta): 1 µg/mL (≈ 0.69 µM)
MIC90 (Tissierella praeacuta): 4 µg/mL (≈ 2.76 µM)
MIC50 (Porphyromonas uenonis): 4 µg/mL (≈ 2.76 µM)
MIC90 (Porphyromonas uenonis): 8 µg/mL (≈ 5.52 µM)
MIC50 (Actinomyces viscosus): 1 µg/mL (≈ 0.69 µM)
MIC90 (Actinomyces viscosus): 64 µg/mL (≈ 44.2 µM)
MIC50 (Clostridium scindens): 1 µg/mL (≈ 0.69 µM)
MIC90 (Clostridium scindens): 4 µg/mL (≈ 2.76 µM)
MIC50 (Bacteroides ovatus): 128 µg/mL (≈ 88.3 µM)
MIC90 (Bacteroides ovatus): 128 µg/mL (≈ 88.3 µM)
MIC50 (Clostridium symbiosum): 1 µg/mL (≈ 0.69 µM)
MIC90 (Clostridium symbiosum): 4 µg/mL (≈ 2.76 µM)
MIC50 (Eggerthella lenta): 1 µg/mL (≈ 0.69 µM)
MIC90 (Eggerthella lenta): 64 µg/mL (≈ 44.2 µM)
MIC50 (Clostridium tertium): 1 µg/mL (≈ 0.69 µM)
MIC90 (Clostridium tertium): 4 µg/mL (≈ 2.76 µM)
MIC50 (Bifidobacterium breve): 1 µg/mL (≈ 0.69 µM)
MIC90 (Bifidobacterium breve): 64 µg/mL (≈ 44.2 µM)
MIC50 (Eubacterium limosum): 1 µg/mL (≈ 0.69 µM)
MIC90 (Eubacterium limosum): 64 µg/mL (≈ 44.2 µM)
MIC50 [1]: > 1020 µg/mL
MIC90 [1]: > 1020 µg/mL
MIC50 (Clostridium fallax): 1 µg/mL (≈ 0.69 µM)
MIC90 (Clostridium fallax): 4 µg/mL (≈ 2.76 µM)
MIC50 (Desulfovibrio piger): > 1020 µg/mL
MIC90 (Desulfovibrio piger): > 1020 µg/mL
MIC50 [2]: 1 µg/mL (≈ 0.69 µM)
MIC90 [2]: 64 µg/mL (≈ 44.2 µM)
MIC50 (Clostridium sporogenes): 1 µg/mL (≈ 0.69 µM)
MIC90 (Clostridium sporogenes): 4 µg/mL (≈ 2.76 µM)
MIC50 [3]: 128 µg/mL (≈ 88.3 µM)
MIC90 [3]: 128 µg/mL (≈ 88.3 µM)
MIC50 (Clostridium subterminale): 1 µg/mL (≈ 0.69 µM)
MIC90 (Clostridium subterminale): 4 µg/mL (≈ 2.76 µM)
MIC (Bilophila wadsworthia): 64 µg/mL
MIC50 (Bilophila wadsworthia): 64 µg/mL
MIC90 (Bilophila wadsworthia): 128 µg/mL
MIC50 [4]: 1 µg/mL (≈ 0.69 µM)
MIC90 [4]: 64 µg/mL (≈ 44.2 µM)
MIC50 [5]: 0.5 µg/mL (≈ 0.345 µM)
MIC90 [5]: 1 µg/mL (≈ 0.69 µM)
MIC50 (Fusobacterium varium): 256 µg/mL (≈ 177 µM)
MIC90 (Fusobacterium varium): > 1020 µg/mL
MIC50 (Clostridium butyricum): 1 µg/mL (≈ 0.69 µM)
MIC90 (Clostridium butyricum): 4 µg/mL (≈ 2.76 µM)
MIC50 (Fusobacterium nucleatum): 256 µg/mL (≈ 177 µM)
MIC90 (Fusobacterium nucleatum): 512 µg/mL (≈ 353 µM)
MIC50 [6]: 2 µg/mL (≈ 1.38 µM)
MIC90 [6]: 2 µg/mL (≈ 1.38 µM)
MIC50 (Clostridium spiroforme): 1 µg/mL (≈ 0.69 µM)
MIC90 (Clostridium spiroforme): 4 µg/mL (≈ 2.76 µM)
MIC (Bacteroides uniformis): 64 µg/mL (≈ 44.2 µM)
MIC50 (Bacteroides uniformis): 64 µg/mL (≈ 44.2 µM)
MIC90 (Bacteroides uniformis): 128 µg/mL (≈ 88.3 µM)
MIC50 (Schaalia meyeri): 1 µg/mL (≈ 0.69 µM)
MIC90 (Schaalia meyeri): 64 µg/mL (≈ 44.2 µM)
MIC50 (Bifidobacterium dentium): 1 µg/mL (≈ 0.69 µM)
MIC90 (Bifidobacterium dentium): 64 µg/mL (≈ 44.2 µM)
MIC (Bacteroides stercoris): 64 µg/mL (≈ 44.2 µM)
MIC50 (Bacteroides stercoris): 64 µg/mL (≈ 44.2 µM)
MIC90 (Bacteroides stercoris): 128 µg/mL (≈ 88.3 µM)
MIC50 [7]: 1 µg/mL (≈ 0.69 µM)
MIC90 [7]: 4 µg/mL (≈ 2.76 µM)
MIC50 (Ruminococcus gnavus): 0.5 µg/mL (≈ 0.345 µM)
MIC90 (Ruminococcus gnavus): 1 µg/mL (≈ 0.69 µM)
MIC50 [8]: 1 µg/mL (≈ 0.69 µM)
MIC90 [8]: 4 µg/mL (≈ 2.76 µM)
MIC50 [9]: 1 µg/mL (≈ 0.69 µM)
MIC90 [9]: 64 µg/mL (≈ 44.2 µM)
MIC50 (Prevotella corporis): 128 µg/mL (≈ 88.3 µM)
MIC90 (Prevotella corporis): 256 µg/mL (≈ 177 µM)
MIC50 (Clostridium sp.): 1 µg/mL (≈ 0.69 µM)
MIC90 (Clostridium sp.): 4 µg/mL (≈ 2.76 µM)
MIC50 (Desulfovibrio vulgaris): > 1020 µg/mL
MIC90 (Desulfovibrio vulgaris): > 1020 µg/mL
MIC50 (Fusobacterium sp.): 256 µg/mL (≈ 177 µM)
MIC90 (Fusobacterium sp.): > 1020 µg/mL
MIC50 (Eubacterium saburreum): 1 µg/mL (≈ 0.69 µM)
MIC90 (Eubacterium saburreum): 64 µg/mL (≈ 44.2 µM)
MIC50 (Clostridium cadaveris): 1 µg/mL (≈ 0.69 µM)
MIC90 (Clostridium cadaveris): 4 µg/mL (≈ 2.76 µM)
MIC50 (Eubacterium callanderi): 1 µg/mL (≈ 0.69 µM)
MIC90 (Eubacterium callanderi): 64 µg/mL (≈ 44.2 µM)
MIC50 (Porphyromonas): 4 µg/mL (≈ 2.76 µM)
MIC90 (Porphyromonas): 8 µg/mL (≈ 5.52 µM)
MIC50 (Ruminococcus lactaris): 0.5 µg/mL (≈ 0.345 µM)
MIC90 (Ruminococcus lactaris): 1 µg/mL (≈ 0.69 µM)
MIC50 (Clostridium beijerinckii): 1 µg/mL (≈ 0.69 µM)
MIC90 (Clostridium beijerinckii): 4 µg/mL (≈ 2.76 µM)
MIC50 [10]: 128 µg/mL (≈ 88.3 µM)
MIC90 [10]: 256 µg/mL (≈ 177 µM)
MIC50 (Clostridium disporicum): 1 µg/mL (≈ 0.69 µM)
MIC90 (Clostridium disporicum): 4 µg/mL (≈ 2.76 µM)
MIC50 [11]: 1 µg/mL (≈ 0.69 µM)
MIC90 [11]: 64 µg/mL (≈ 44.2 µM)
MIC (Bacteroides nordii): 64 µg/mL (≈ 44.2 µM)
MIC50 (Bacteroides nordii): 64 µg/mL (≈ 44.2 µM)
MIC90 (Bacteroides nordii): 128 µg/mL (≈ 88.3 µM)
